# Experiment: phase 1/2 study in relapsed/refractory ITP (NCT03395210), safety
# Settings: for Abdominal discomfort / Abdominal distension / Abdominal pain / Abnormal dreams / Akathisia / Alopecia / Anemia / Any TEAE / Arthralgia / Arthropod bite / Back pain / Conjunctival hemorrhage / Contusion / Costochondritis / Cough / Decreased appetite / Defecation urgency / Diarrhea / Dizziness / Dyspepsia / Dyspnea / Dyspnea exertional / Edema / Epigastric discomfort / Epistaxis / Erysipelas / Fatigue / Frequent bowel movements / Gingival bleeding / Headache / Heavy menstrual bleeding / Hypoesthesia / Hypophosphatemia / I lot flush / Ilypokalemia / Increased white blood cell count / Maculo-papular rash / Malaise / Micturition urgency / Muscle spasms / Myalgia / Nasal congestion / Nasopharyngitis / Nausea / Peripheral swelling / Petechiae / Pruritus / Purpura / Rash / Thrombocytopena / Upper abdominal pain / Upper respiratory tract infection / Urinary tract infection / Vomiting: TEAE any cause
# From the text: The Safety Population was used for all safety analyses.
# Pre-existing conditions that worsened during a study were reported as AEs.
# Safety was graded per NCI CTCAE, version 4.0.
# [1] = 45 patients initiating 400 mg bid
# [2] = any cause, unrelated to rilzabrutinib treatment, patients
# [3] = baseline through end of treatment
smiles,measurement,setting,value
"CC(C)(C=C(C#N)C(=O)N1CCC[C@@H](n2nc(-c3ccc(Oc4ccccc4)cc3F)c3c(N)ncnc32)C1)N1CCN(C2COC2)CC1 (mixture of isomers) [rilzabrutinib, (R)-2-[3-[4-amino-3-(2-fluoro-4-phenoxy-phenyl)pyrazolo[3,4-d]pyrimidin-1-yl]piperidine-1-carbonyl]-4-methyl-4-[4-(oxetan-3-yl)piperazin-1-yl]pent-2-enenitrile]",Rescue medication use,200 mg qd,1 patient
same,Rescue medication use,"300 mg bid, patients",1
same,Rescue medication use,"400 mg bid, patients",5
same,dose reductions/interruptions due to adverse events,[1],no dose reductions/interruptions due to adverse events
same,dose-limiting toxicities,[1],no dose-limiting toxicities
same,tolerability,ITP patients,well-tolerated
same,treatment-related bleeding or thrombotic events,ITP patients,no reported treatment-related bleeding or thrombotic events
same,Abdominal discomfort,any grade,1 (2) number of patients (percent)
same,Abdominal distension,any grade,6 (10) number of patients (percent)
same,Abdominal pain,any grade,3 (5) number of patients (percent)
same,Abnormal dreams,any grade,1 (2) number of patients (percent)
same,Akathisia,any grade,1 (2) number of patients (percent)
same,Alopecia,any grade,2 (3) number of patients (percent)
same,Anemia,any grade,4 (7) number of patients (percent)
same,Any TEAE,any grade,48 (80) number of patients (percent)
same,Arthralgia,any grade,5 (8) number of patients (percent)
same,Arthropod bite,any grade,3 (5) number of patients (percent)
same,Back pain,any grade,8 (13) number of patients (percent)
same,Conjunctival hemorrhage,any grade,5 (8) number of patients (percent)
same,Contusion,any grade,11 (18) number of patients (percent)
same,Costochondritis,any grade,2 (3) number of patients (percent)
same,Cough,any grade,2 (3) number of patients (percent)
same,Decreased appetite,any grade,1 (2) number of patients (percent)
same,Defecation urgency,any grade,1 (2) number of patients (percent)
same,Diarrhea,any grade,22 (37) number of patients (percent)
same,Dizziness,any grade,2 (3) number of patients (percent)
same,Dyspepsia,any grade,4 (7) number of patients (percent)
same,Dyspnea,any grade,2 (3) number of patients (percent)
same,Dyspnea exertional,any grade,2 (3) number of patients (percent)
same,Edema,any grade,2 (3) number of patients (percent)
same,Epigastric discomfort,any grade,1 (2) number of patients (percent)
same,Epistaxis,any grade,2 (3) number of patients (percent)
same,Erysipelas,any grade,1 (2) number of patients (percent)
same,Fatigue,any grade,12 (20) number of patients (percent)
same,Frequent bowel movements,any grade,1 (2) number of patients (percent)
same,Gingival bleeding,any grade,3 (5) number of patients (percent)
same,Headache,any grade,7 (12) number of patients (percent)
same,Heavy menstrual bleeding,any grade,2 (3) number of patients (percent)
same,Hypoesthesia,any grade,1 (2) number of patients (percent)
same,Hypophosphatemia,any grade,2 (3) number of patients (percent)
same,I lot flush,any grade,1 (2) number of patients (percent)
same,Ilypokalemia,any grade,1 (2) number of patients (percent)
same,Increased white blood cell count,any grade,1 (2) number of patients (percent)
same,Maculo-papular rash,any grade,1 (2) number of patients (percent)
same,Malaise,any grade,1 (2) number of patients (percent)
same,Micturition urgency,any grade,1 (2) number of patients (percent)
same,Muscle spasms,any grade,2 (3) number of patients (percent)
same,Myalgia,any grade,1 (2) number of patients (percent)
same,Nasal congestion,any grade,2 (3) number of patients (percent)
same,Nasopharyngitis,any grade,3 (5) number of patients (percent)
same,Nausea,any grade,21 (35) number of patients (percent)
same,Peripheral swelling,any grade,3 (5) number of patients (percent)
same,Petechiae,any grade,4 (7) number of patients (percent)
same,Pruritus,any grade,2 (3) number of patients (percent)
same,Purpura,any grade,2 (3) number of patients (percent)
same,Rash,any grade,3 (5) number of patients (percent)
same,Thrombocytopena,any grade,2 (3) number of patients (percent)
same,Upper abdominal pain,any grade,3 (5) number of patients (percent)
same,Upper respiratory tract infection,any grade,3 (5) number of patients (percent)
same,Urinary tract infection,any grade,2 (3) number of patients (percent)
same,Vomiting,any grade,4 (7) number of patients (percent)
same,Abdominal discomfort,grade 1,1 (2) number of patients (percent)
same,Abdominal distension,grade 1,6 (10) number of patients (percent)
same,Abdominal pain,grade 1,1 (2) number of patients (percent)
same,Abnormal dreams,grade 1,1 (2) number of patients (percent)
same,Akathisia,grade 1,1 (2) number of patients (percent)
same,Alopecia,grade 1,2 (3) number of patients (percent)
same,Anemia,grade 1,— (represents zero events)
same,Any TEAE,grade 1,43 (72) number of patients (percent)
same,Arthralgia,grade 1,3 (5) number of patients (percent)
same,Arthropod bite,grade 1,3 (5) number of patients (percent)
same,Back pain,grade 1,7 (12) number of patients (percent)
same,Conjunctival hemorrhage,grade 1,5 (8) number of patients (percent)
same,Contusion,grade 1,7 (12) number of patients (percent)
same,Costochondritis,grade 1,2 (3) number of patients (percent)
same,Cough,grade 1,2 (3) number of patients (percent)
same,Decreased appetite,grade 1,1 (2) number of patients (percent)
same,Defecation urgency,grade 1,— (represents zero events)
same,Diarrhea,grade 1,19 (32) number of patients (percent)
same,Dizziness,grade 1,2 (3) number of patients (percent)
same,Dyspepsia,grade 1,3 (5) number of patients (percent)
same,Dyspnea,grade 1,2 (3) number of patients (percent)
same,Dyspnea exertional,grade 1,2 (3) number of patients (percent)
same,Edema,grade 1,2 (3) number of patients (percent)
same,Epigastric discomfort,grade 1,— (represents zero events)
same,Epistaxis,grade 1,2 (3) number of patients (percent)
same,Erysipelas,grade 1,— (represents zero events)
same,Fatigue,grade 1,10 (17) number of patients (percent)
same,Frequent bowel movements,grade 1,— (represents zero events)
same,Gingival bleeding,grade 1,3 (5) number of patients (percent)
same,Headache,grade 1,7 (12) number of patients (percent)
same,Heavy menstrual bleeding,grade 1,1 (2) number of patients (percent)
same,Hypoesthesia,grade 1,— (represents zero events)
same,Hypophosphatemia,grade 1,— (represents zero events)
same,I lot flush,grade 1,— (represents zero events)
same,Ilypokalemia,grade 1,1 (2) number of patients (percent)
same,Increased white blood cell count,grade 1,— (represents zero events)
same,Maculo-papular rash,grade 1,1 (2) number of patients (percent)
same,Malaise,grade 1,1 (2) number of patients (percent)
same,Micturition urgency,grade 1,1 (2) number of patients (percent)
same,Muscle spasms,grade 1,2 (3) number of patients (percent)
same,Myalgia,grade 1,1 (2) number of patients (percent)
same,Nasal congestion,grade 1,1 (2) number of patients (percent)
same,Nasopharyngitis,grade 1,2 (3) number of patients (percent)
same,Nausea,grade 1,18 (30) number of patients (percent)
same,Peripheral swelling,grade 1,3 (5) number of patients (percent)
same,Petechiae,grade 1,4 (7) number of patients (percent)
same,Pruritus,grade 1,1 (2) number of patients (percent)
same,Purpura,grade 1,2 (3) number of patients (percent)
same,Rash,grade 1,1 (2) number of patients (percent)
same,Thrombocytopena,grade 1,— (represents zero events)
same,Upper abdominal pain,grade 1,2 (3) number of patients (percent)
same,Upper respiratory tract infection,grade 1,2 (3) number of patients (percent)
same,Urinary tract infection,grade 1,1 (2) number of patients (percent)
same,Vomiting,grade 1,3 (5) number of patients (percent)
same,Abdominal discomfort,grade 2,— (represents zero events)
same,Abdominal distension,grade 2,— (represents zero events)
same,Abdominal pain,grade 2,2 (3) number of patients (percent)
same,Abnormal dreams,grade 2,— (represents zero events)
same,Akathisia,grade 2,— (represents zero events)
same,Alopecia,grade 2,— (represents zero events)
same,Anemia,grade 2,2 (3) number of patients (percent)
same,Any TEAE,grade 2,30 (50) number of patients (percent)
same,Arthralgia,grade 2,2 (3) number of patients (percent)
same,Arthropod bite,grade 2,— (represents zero events)
same,Back pain,grade 2,1 (2) number of patients (percent)
same,Conjunctival hemorrhage,grade 2,— (represents zero events)
same,Contusion,grade 2,3 (5) number of patients (percent)
same,Costochondritis,grade 2,— (represents zero events)
same,Cough,grade 2,— (represents zero events)
same,Decreased appetite,grade 2,— (represents zero events)
same,Defecation urgency,grade 2,1 (2) number of patients (percent)
same,Diarrhea,grade 2,3 (5) number of patients (percent)
same,Dizziness,grade 2,— (represents zero events)
same,Dyspepsia,grade 2,1 (2) number of patients (percent)
same,Dyspnea,grade 2,— (represents zero events)
same,Dyspnea exertional,grade 2,— (represents zero events)
same,Edema,grade 2,— (represents zero events)
same,Epigastric discomfort,grade 2,1 (2) number of patients (percent)
same,Epistaxis,grade 2,— (represents zero events)
same,Erysipelas,grade 2,1 (2) number of patients (percent)
same,Fatigue,grade 2,2 (3) number of patients (percent)
same,Frequent bowel movements,grade 2,1 (2) number of patients (percent)
same,Headache,grade 2,— (represents zero events)
same,Heavy menstrual bleeding,grade 2,1 (2) number of patients (percent)
same,Hypoesthesia,grade 2,1 (2) number of patients (percent)
same,Hypophosphatemia,grade 2,2 (3) number of patients (percent)
same,I lot flush,grade 2,1 (2) number of patients (percent)
same,Ilypokalemia,grade 2,— (represents zero events)
same,Increased white blood cell count,grade 2,1 (2) number of patients (percent)
same,Maculo-papular rash,grade 2,— (represents zero events)
same,Malaise,grade 2,— (represents zero events)
same,Micturition urgency,grade 2,— (represents zero events)
same,Muscle spasms,grade 2,— (represents zero events)
same,Myalgia,grade 2,— (represents zero events)
same,Nasal congestion,grade 2,1 (2) number of patients (percent)
same,Nasopharyngitis,grade 2,1 (2) number of patients (percent)
same,Nausea,grade 2,3 (5) number of patients (percent)
same,Peripheral swelling,grade 2,— (represents zero events)
same,Petechiae,grade 2,— (represents zero events)
same,Pruritus,grade 2,1 (2) number of patients (percent)
same,Purpura,grade 2,— (represents zero events)
same,Rash,grade 2,2 (3) number of patients (percent)
same,Thrombocytopena,grade 2,— (represents zero events)
same,Upper abdominal pain,grade 2,1 (2) number of patients (percent)
same,Upper respiratory tract infection,grade 2,1 (2) number of patients (percent)
same,Urinary tract infection,grade 2,1 (2) number of patients (percent)
same,Vomiting,grade 2,1 (2) number of patients (percent)
same,Abdominal discomfort,grade 3/4,— (represents zero events)
same,Abdominal distension,grade 3/4,— (represents zero events)
same,Abdominal pain,grade 3/4,— (represents zero events)
same,Abnormal dreams,grade 3/4,— (represents zero events)
same,Akathisia,grade 3/4,— (represents zero events)
same,Alopecia,grade 3/4,— (represents zero events)
same,Anemia,grade 3/4,2 (3) number of patients (percent)
same,Arthralgia,grade 3/4,— (represents zero events)
same,Arthropod bite,grade 3/4,— (represents zero events)
same,Back pain,grade 3/4,— (represents zero events)
same,Conjunctival hemorrhage,grade 3/4,— (represents zero events)
same,Contusion,grade 3/4,1 (2) number of patients (percent)
same,Costochondritis,grade 3/4,— (represents zero events)
same,Cough,grade 3/4,— (represents zero events)
same,Decreased appetite,grade 3/4,— (represents zero events)
same,Defecation urgency,grade 3/4,— (represents zero events)
same,Diarrhea,grade 3/4,— (represents zero events)
same,Dizziness,grade 3/4,— (represents zero events)
same,Dyspepsia,grade 3/4,— (represents zero events)
same,Dyspnea,grade 3/4,— (represents zero events)
same,Dyspnea exertional,grade 3/4,— (represents zero events)
same,Edema,grade 3/4,— (represents zero events)
same,Epigastric discomfort,grade 3/4,— (represents zero events)
same,Epistaxis,grade 3/4,— (represents zero events)
same,Erysipelas,grade 3/4,— (represents zero events)
same,Fatigue,grade 3/4,— (represents zero events)
same,Frequent bowel movements,grade 3/4,— (represents zero events)
same,Headache,grade 3/4,— (represents zero events)
same,Heavy menstrual bleeding,grade 3/4,— (represents zero events)
same,Hypoesthesia,grade 3/4,— (represents zero events)
same,Hypophosphatemia,grade 3/4,— (represents zero events)
same,I lot flush,grade 3/4,— (represents zero events)
same,Ilypokalemia,grade 3/4,— (represents zero events)
same,Increased white blood cell count,grade 3/4,— (represents zero events)
same,Maculo-papular rash,grade 3/4,— (represents zero events)
same,Malaise,grade 3/4,— (represents zero events)
same,Micturition urgency,grade 3/4,— (represents zero events)
same,Muscle spasms,grade 3/4,— (represents zero events)
same,Myalgia,grade 3/4,— (represents zero events)
same,Nasal congestion,grade 3/4,— (represents zero events)
same,Nasopharyngitis,grade 3/4,— (represents zero events)
same,Nausea,grade 3/4,— (represents zero events)
same,Peripheral swelling,grade 3/4,— (represents zero events)
same,Petechiae,grade 3/4,— (represents zero events)
same,Pruritus,grade 3/4,— (represents zero events)
same,Purpura,grade 3/4,— (represents zero events)
same,Rash,grade 3/4,— (represents zero events)
same,Thrombocytopena,grade 3/4,2 (3) number of patients (percent)
same,Upper abdominal pain,grade 3/4,— (represents zero events)
same,Upper respiratory tract infection,grade 3/4,— (represents zero events)
same,Urinary tract infection,grade 3/4,— (represents zero events)
same,Vomiting,grade 3/4,— (represents zero events)
same,Rescue medication use,all patients,seven
same,grade 3 anemia,"any cause, unrelated to rilzabrutinib treatment",2 n
same,grade 3 abnormal alanine aminotransferase levels,[2],one each
same,grade 3 contusion,[2],one each
same,grade 3 gastrointestinal hemorrhage,[2],one each
same,grade 3 hematoma,[2],one each
same,grade 3 immune thrombocytopenia,[2],one each
same,grade 3 myelofibrosis,[2],one each
same,grade 3 thrombocytopenia,[2],one each
same,grade 4 Evans syndrome,[2],one each
same,grade 4 thrombocytopenia,[2],one each
same,"≥1 treatment-related, treatment-emergent adverse event",any grade,52%
same,"grade 3, 4, or 5 bleeding events (IBLS Bleeding Scale)","baseline or week 24/EOS, n=34","no grade 3, 4, or 5 bleeding events"
same,IBLS bleeding scale scores within each domain,[3],no increase in bleeding from baseline through the end of treatment
same,"IBLS bleeding scale scores, skin and oral sites",[3],improved at skin and oral sites

# Source: US20260364079A1 (Principia Biopharma Inc., priority 2022, published 2026)
